Measurements reported in EP2891491A1, “Use of (r)-phenylpiracetam for the treatment of sleep disorders” (Merz Pharma GmbH & Co. KGaA, priority 2014, dated 2015).

Experiments:
[1] = humans, administered orally; cited from earlier work
[2] = system: rats; assay: motivation tests: progressive ratio task, cost-benefit choice test, consumption test; assay type: in vivo
Experimental: EXAMPLE 6: Effect of (R)-phenylpiracetam in motivation tests - Figs. 5, 6, 7, 8
Methylphenidate purchased from Sigma (Taufkirchen, Germany) was dissolved in distilled water fresh for each test day. D-Amphetamine purchased from Sigma (Taufkirchen, Germany) was dissolved in 0.9% sterile NaCl solution fresh for each test day. (R)-Phenylpiracetam was dissolved in distilled water fresh for each test day.
One hundred and three male Sprague-Dawley rats (Janvier, Le Genest-St-Isle, France) weighing 225-250 g on arrival were used.
The animals were kept under standard laboratory conditions in groups of up to 4 per care with ad libitum access to water. Standard diet for rodents (Altromin) was available to the animals at 15 g per animal/day
For each test described below, two independent experiments were performed using an identical protocol. After continuous reinforcement training (CRF) training (see below) all animals were assigned to treatment groups, such that performance across all the groups was similar. The treatment groups were evenly distributed throughout the caging system.
In experiment 1 and 2 the following protocols were used:
Overview: Three tests were performed in a consecutive manner on subsequent days. On day 1-2, animals were habituated individually to Skinner boxes in two sessions, one per day, for 30 min. Animals received "free" food pellets at a random time (one pellet per minute on average). On days 3-8 animals were trained in Skinner boxes on a continuous reinforcement schedule (one pellet per lever press). On days 9-10 they were tested in the progressive ratio test (Test 1) off-drug, on days 11-12 on-drug. On day 13, a choice test (Test 2) was performed on-drug, on day 14, a consumption test (Test 3) was performed on-drug. Below, tests are described in detail.
Behavioral testing was conducted in 12 operant test chambers (Med Associates, St. Albans, USA). Each chamber was equipped with a retractable lever, a food dispenser with receptacle, an overhead house light and two stimulus lights, one above the lever and the other above the food receptacle. An infrared photocell beam detected nose pokes into the food receptacle. The apparatus was controlled by a computer system (SmartControl®-Interface and MedPC-software, Med Associates, St. Albans, USA). The light above the food receptacle indicated the delivery of a food pellet in the receptacle. Rats were first habituated to the operant boxes for two sessions (30 min each) on two consecutive days. Thereafter, animals were trained for six sessions on the CRF schedule for 30 min. Followed by 4 sessions (two session off-drug followed by two sessions on-drug) of an increasing fixed ratio (FR) schedule in steps of 5, with 3 repetitions of each step (i.e. 1-1-1; 5-5-5; 10-10-10; ...). When the required FR value of each trial was achieved the light above the food receptacle indicated the delivery of a single food pellet (45 mg, Bioserve, USA). The light remained on until the rat poked its nose in the receptacle. Lever presses while the light was on were counted as perseverative lever presses; they were counted but had no programmed consequences. […] For each session, the value of the last completed ratio (breaking point) was recorded as well as the amount of received rewards, the perseverative lever presses, the duration of the session and the latency to respond. Animals of all treatment groups received respective vehicle/drug infusions 30 min pre-test on the final two sessions involving testing under a PR schedule.
In this task the rats had the choice between working for their preferred food (Bioserve pellets) by pressing the lever on a PR schedule as described above or obtaining lab chow being freely available in a dish (about 15 g) within the operant chamber. The food receptacle and the lever were positioned on the same wall of the operant chamber, the dish containing the lab chow was situated in a corner on the opposite side of the operant chamber. […]

[3] = just slightly stronger with (R)- than with (S)-phenylpiracetam; cited from earlier work
[4] = system: subjects with PD and EDS; settings: 200 to 400 mg/day vs placebo, 40 subjects with PD and EDS; cited from earlier work

## NC(=O)CN1CC(c2ccccc2)CC1=O (racemic) [phenylpiracetam, 2-(4-phenyl-2-oxopyrrolidin-1-yl)acetamide]
[1]
  half-life: 3 to 5 h

## NC(=O)CN1C[C@H](c2ccccc2)CC1=O [(S)-phenylpiracetam, reference compound]
[2]; 100 mg/kg
  effect on motivation: only a very weak effect
[2]; 100 mg/kg, times lower than (R)-phenylpiracetam
  effect on motivation relative to (R)-phenylpiracetam: 2.5 times
[2]; 200 mg/kg
  effect on motivation: no significant effect
[3]
  locomotor activity in the open-field test: significant increase

## NC(=O)C[S+]([O-])C(c1ccccc1)c1ccccc1 (stereo not drawn) [modafinil]
[4]
  Epworth sleepiness score (primary outcome measure) and secondary outcome measures: no benefit
